# Legend:
# Assay type in all cases: in vivo
# [1] = system: 2nd-instar larvae of Mythimna separata; assay: Joint toxicity of I-72 + hexaflumuron, Example 56, Table 56; conditions: foliar, A = compound I-72, B = hexaflumuron, corn leaf dipping, 72 hours, read-out: LC50
# Protocol: Test target: 2nd-instar larvae of Mythimna separata.
# (§1) Preparation of the pesticide solution: according to different test requirements, the test samples were accurately weighed respectively with an electronic analytical balance. The technical pesticides were dissolved in acetone, and then diluted with 0.1% Tween 80 water into a series of pesticide solutions with a certain concentration gradient according to the experimental design dosage.
# (§2) Experimental method: first, corn leaves were selected and dipped in the prepared pesticide solution for 10 s in the order from low dosage to high dosage according to the experimental design. After natural air-drying in the shade, they were placed in a 9-cm-diameter Petri dish with filter paper, and uniform and healthy test insects were introduced, with 10 insects for each treatment and 3 replicates for each treatment. In addition, a blank control was set up.
# (§3) The treated test materials were placed in an observation room, and the temperature, humidity and illumination of the observation room could be adjusted as needed. The number of dead and live insects was investigated 72 hours later. […] Then, the co-toxicity coefficient of each ratio was calculated using the Sun Y-P method to evaluate the mixing effect (the same as in Example 1).
# [2] = system: Thrips flavus Schrank nymphs; assay: Joint toxicity of I-72 + flonicamid, Example 78, Table 78; conditions: Thrips flavus; A = compound I-72, B = flonicamid; eggplant seedling spraying; 48 hours; read-out: LC50
# Protocol: Test target: Thrips flavus Schrank nymphs.
# as §1
# Experimental method: first, eggplant seedlings with Thrips flavus Schrank were selected, and the base number was counted. Then, uniform spraying was performed with the pesticide solution in the order from low to high doses according to the experimental design, with 2 mL for each seedling and 3 replicates for each treatment. In addition, a blank control was set up.
# as §3, with “48” for “72”
# [3] = system: Aphis gossypii Glover nymphs; assay: Joint toxicity of I-72 + spiropidion, Example 28, Table 28; conditions: Aphis gossypii; A = compound I-72, B = spiropidion; cotton leaf spraying; 48 hours; read-out: LC50
# Protocol: Test target: Aphis gossypii Glover nymphs, a sensitive strain reared indoors.
# as §1
# (§4) Experimental method: first, cotton leaves with uniform and consistent Aphis gossypii were selected, with about 30-40 insects on each leaf. Then, they were evenly sprayed with the pesticide solution in the order from low dosage to high dosage according to the experimental design, with 1.5 mL for each leaf and 3 replicates for each treatment. In addition, a blank control was set up.
# as §3, with “48” for “72”
# [4] = system: 3rd-instar larvae of Pyrausta nubilalis Hubern; assay: Synergism assay (Bliss) of I-72 + cartap, monosultap, bisultap, Example 5, Table 5; conditions: Ostrinia nubilalis, 72 h, read-out: Mortality rate (%)
# Protocol: Test subject: 3rd-instar larvae of Pyrausta nubilalis Hubern, a sensitive strain reared indoors.
# Test conditions: temperature: 24-26° C., humidity: RH 60%, and illumination: L:D=14:10
# Preparation method: the test pesticides were accurately weighed respectively with an electronic analytical balance. After the two technical materials were respectively added into an appropriate amount of solvent and completely dissolved, the stock solution of the required concentration was prepared with water containing 0.1% Tween 80. The stock solutions of the two active ingredients were mixed in a certain ratio to prepare a mixed solution, which was then diluted respectively into a series of pesticide solutions with a certain concentration gradient according to the experimental design dosage.
# Experimental method: the artificial diet-pesticide film method was adopted. A standard clean 24-well culture plate was selected. 1 ml of artificial diet was added to each well. After the diet cooled and solidified, a quantitative amount of a pesticide solution was added to the culture plate using a continuous sampler, and then it was air-dried naturally in the shade. The standard test insects were introduced, with 1 insect in each well, a total of 48 insects. The treated test insects were placed in an observation room under certain conditions. The reaction of the test insects was regularly observed, and the number of dead and live insects was investigated 72 h later.
# The evaluation method adopted was the Bliss method. This method is applicable to the qualitative screening of insecticidal compositions. According to the concept of independent joint action he proposed, Bliss believes that the theoretical mortality rate P when insecticides are used in combination can be calculated by the following formula: […]
# Pm is the mortality rate (%) of the target when the first active ingredient is at a concentration of m; and Pn is the mortality rate (%) of the target when the second active ingredient is at a concentration of n.
# (§5) If the actual mortality rate of the target after the two active ingredients are mixed at a certain concentration is greater than theoretical mortality rate P, it is determined that the two active ingredients have a synergistic effect when used in combination at the set concentration, and otherwise, they have an antagonistic effect.
# [5] = system: Sitobion miscanthi (Fabricius); assay: whole plant or invertebrate; conditions: Sitobion miscanthi, in Triticum aestivum; single pesticide, 10 mg/L; 48 hours; read-out: Measured mortality rate
# Protocol: Test target: Sitobion miscanthi (Fabricius).
# as §1
# as §4, with “wheat seedlings” for “cotton leaves”, “Sitobion miscanthi (Fabricius)” for “Aphis gossypii”, “pot of wheat.” for “leaf.”, “2.5” for “1.5”, “pot” for “leaf”, “control CK” for “control”
# The treated test materials were placed in an observation room, and the temperature, humidity and illumination of the observation room could be adjusted as needed. The number of dead and alive insects was investigated 48 hours later, and the corrected mortality rate was calculated using the Abbott's formula.
# The synergism of the mixture was evaluated by the Bliss method. According to the concept of independent joint action he proposed, Bliss believes that the theoretical mortality rate P when insecticides are used in combination can be calculated by the following formula: […]
# Pm is the measured mortality rate (%) of the target when the first active ingredient is at a concentration of m; and Pn is the measured mortality rate (%) of the target when the second active ingredient is used at a concentration of n.
# as §5
# [6] = system: 3rd-instar larvae of Ostrinia furnacalis Guenee; assay: Joint toxicity of I-72 + pymetrozine, Example 79, Table 79; conditions: A = compound I-72, B = pymetrozine, corn stem dipping, 72 hours, read-out: LC50
# Protocol: Test target: 3rd-instar larvae of Ostrinia furnacalis Guenee.
# as §1
# as §2, with “first, tender” for “first,”, “stems” for “leaves”
# as §3
smiles,measurement,setting,value
CN(C(=O)c1ccc2c(c1)OC(F)(F)O2)c1cccc(C(=O)Nc2c(Br)cc(C(F)(C(F)(F)F)C(F)(F)F)cc2OC(F)F)c1F [Compound I-72],LC50,[1],0.0301 µg/mL
same,LC50,[2],1.9 µg/mL
same,LC50,[3],3.19 µg/mL
same,mortality at 0.1 µg/mL,[4]; single agent 0.1 mg/L,22.9%
same,mortality at 0.5 µg/mL,[4]; single agent 0.5 mg/L,41.7%
same,mortality at 1 µg/mL,[4]; single agent 1 mg/L,60.4%
same,mortality at 2 µg/mL,[4]; single agent 2 mg/L,70.8%
same,mortality at 5 µg/mL,[4]; single agent 5 mg/L,87.5%
same,mortality at 10 µg/mL,[5],64.2%
same,LC50,[6],0.801 µg/mL
